We go through 16 compounds from article PMC5036131, “Fragment-based discovery of a new family of non-peptidic small-molecule cyclophilin inhibitors with potent antiviral activities” (Nature Communications, 2016).

Where two headings read alike, the source gives them in different places.

Broadly, the IC50 is the point on the concentration scale where inhibition reaches its midpoint. As a reminder, the EC50 is the midpoint of the concentration-response curve.

Series [1] can be described thus: in vitro. The settings on record: human.
For a further series, the target named is T1, CypA (Homo sapiens, UniProt P62937).
T1 construct: hexahistidine tag (His-Tag) (C); made in house; host or cells: E. coli C41(DE3)
T1 sequence (P62937 whole entry): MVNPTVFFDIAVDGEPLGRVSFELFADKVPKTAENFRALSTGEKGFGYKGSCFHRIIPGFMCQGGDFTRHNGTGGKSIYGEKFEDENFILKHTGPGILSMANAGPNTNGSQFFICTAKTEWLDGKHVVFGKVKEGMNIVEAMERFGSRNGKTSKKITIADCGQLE
As to the kind of experiment: PPIase enzyme assay (chymotrypsin-coupled), CypA. In kind it is biochemical. The settings on record: 20 °C, mean±s.d. As for the experimental part: (§1) CypA and CypB proteins carrying a hexahistidine tag (His-Tag) at their carboxy terminus were expressed in E. coli and purified. Briefly, cultures of C41(DE3) cells were grown at 37 °C for 1 h until the culture reached an OD of 0.6 at 600 nm and then induced with 1 mM isopropyl-β-D-thiogalactopyranoside for 4 h at 37 °C (CypA) or overnight at 22 °C (CypB). Cell pellets were resuspended in a lysis buffer 20 mM NaH2PO4 pH 7.8, 300 mM NaCl, 7 mM β-mercaptoethanol, 1 mg ml^−1 lysozyme, 0.1 U μl^−1 desoxyribonuclease and complete protease inhibitor tablets (Roche Diagnostics Corporation, Indianapolis, Indiana). […] The bound protein was eluted in 1 ml fractions with a buffer composed of 20 mM NaH2PO4 pH 7.8, 300 mM NaCl, 250 mM imidazole, 7 mM β-mercaptoethanol and 10% glycerol, monitored by the Bradford colorimetric assay. The purity of each cyclophilin was determined by Coomassie-stained SDS–PAGE analysis.

A further series deals with HCoV-229E. As to the kind of experiment: Anti-human coronavirus 229E activity in MRC5 cells. In kind it is cell-based. The settings on record: 72 h, viral cytopathic effect. In general terms: Protection from cytopathic effect is a common read-out in antiviral testing.
Series [2] can be described thus: in vitro. The settings on record: human. This is another data set of the same source.
The target of another series is T2, CypB (Homo sapiens, UniProt P23284).
T2 construct: hexahistidine tag (His-Tag) (C); made in house; host or cells: E. coli C41(DE3)
T2 sequence (P23284 34-216): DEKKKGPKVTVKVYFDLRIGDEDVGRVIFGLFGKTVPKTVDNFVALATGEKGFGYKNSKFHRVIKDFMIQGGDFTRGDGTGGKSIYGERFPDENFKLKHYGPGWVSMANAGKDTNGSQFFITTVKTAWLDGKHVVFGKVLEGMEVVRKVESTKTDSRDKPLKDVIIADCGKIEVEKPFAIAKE
As to the kind of experiment: biochemical. In kind it is biochemical. How it is done: as §1

A further series deals with HCV genotype 1b replicon. Briefly: microbe, parasite or virus in culture. In kind it is cell-based, hepatitis C virus.
In a further series the target is CypD (Homo sapiens, UniProt P30405, K175I). Briefly: PPIase enzyme assay (chymotrypsin-coupled), CypD. The settings on record: for LE (ligand efficiency): Supplementary Figure 1, NMR fragment hits.
Chain of CypD (P30405 44-207 K175I): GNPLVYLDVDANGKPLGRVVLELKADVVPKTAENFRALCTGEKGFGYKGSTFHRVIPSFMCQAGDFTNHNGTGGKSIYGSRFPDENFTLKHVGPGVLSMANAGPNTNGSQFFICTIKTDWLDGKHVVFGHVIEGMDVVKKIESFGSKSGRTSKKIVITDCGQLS
The target in series [3] is cyclophilin PPIase activity. As to the kind of experiment: PPIase enzyme assay, cyclophilin not specified. In kind it is biochemical, human. The settings on record: compounds lacking the ester function; read-out: cyclophilin inhibition IC50.
Description: (§2) Cyclophilin PPIase activity was measured at 20 °C by using the standard chymotrypsin-coupled assay. […] Then, 5 μl of 50 mg ml^−1 chymotrypsin in 1 mM HCl was added. […] After a delay from the onset of mixing, the absorbance of p-nitroaniline was followed at 390 nm until the reaction was complete (1 min). The final concentration of LiCl in the assay was 20 mM and TFE was present at a concentration of 4% (v/v). Absorbance readings were collected every 1 s by a spectrophotometer. For inhibition assessment, 5 μl of the tested compound in dimethyl sulfoxide (DMSO) was added to the cyclophilin solution in the assay buffer. […] The percentage inhibition of cyclophilin PPIase activity was calculated from the slopes and the values obtained represent the mean±s.d. of at least two independent measurements.
The next series relates to MRC5 cells. As to the kind of experiment: Cellular toxicity in MRC5 cells. The settings on record: read-out: MRC5 cells CC50; MRC5 cells.
The subject of a further series is HIV-IIIb. As to the kind of experiment: Anti-HIV activity in MT4 cells. In kind it is cell-based, human immunodeficiency virus. The settings on record: 5 days.
A further series deals with MT4 cells. Briefly: Cytotoxicity in uninfected MT4 cells. The settings on record: read-out: MT4 cells CC50.
For the next series, the system named is Huh7 cells. Briefly: Cellular toxicity in Huh7 replicon cells. The settings on record: read-out: HCV genotype 1b replicon CC50; Huh7 cells. (In general: Replicon systems follow genome replication, usually without infectious particles.)
The subject of a further series is calcineurin. Briefly: Calcineurin phosphatase assay. In kind it is biochemical. The settings on record: binary complex with CypA, 1:1 molar ratio. How it is done: The inhibition of calcineurin phosphatase activity was measured by measuring the dephosphorylation of p-nitrophenyl phosphate (R&D Systems, Minneapolis, USA), according to the manufacturer’s instructions. […] After p-nitrophenyl phosphate addition, the reaction was run for 35 min at 37 °C. The reaction was terminated by addition of BIOMOL green reagent and OD was measured at 630 nm. The results are the means of three independent experiments performed in duplicate. They are presented as the percentage of calcineurin activity relative to that in the inhibitor-free control.

The test system of series [4] is IL-2 production in Jurkat cells. Briefly: Inhibition of IL-2 production in Jurkat cells. In kind it is cell-based. The settings on record: stimulated Jurkat cells.
Description: Duplicate evaluations were included for each test concentration. […] After a 6 h incubation, sample supernatants were collected for measurement of IL-2 production using a commercial kit (Quantikine ELISA, R&D Systems).
In another series the test system is mPTP. Set-up: method as in Panel M, Ahmed-Belkacem A, et al., manuscript in preparation. The settings on record: as a result of CypD inhibition; ref Panel M, Ahmed-Belkacem A, et al., manuscript in preparation; cited from earlier work.
The nature of series [5]: Cellular toxicity in MRC5 cells. The settings on record: human, MRC-5 cells.
Series [6] can be described thus: Cellular toxicity in Huh7 replicon cells. The settings on record: human, Huh7 cells with HCV genotype 1b replicon.
Setting [7] is: Hepatitis C virus, Huh-7, 72 h, read-out: HCV genotype 1b replicon EC50.
[8] abbreviates: PPIase enzyme assay, 20 °C, mean±s.d., read-out: CypB IC50.
The mark [9] stands for this setting: read-out: CypD IC50, PPIase enzyme assay, 20 °C, mean±s.d.
The mark [10] stands for this setting: Huh7 cells, 3 days, HCV RNA, read-out: HCV genotype 1b replicon EC50.
[11] abbreviates: wild-type genotype 1b replicon, comparison with mutated replicons (Table 3), read-out: EC50 HCV (WT) subgenomic replicon.

Description for CypD: as §2

Regarding `C/C=C/C[C@@H](C)[C@@H](O)[C@H]1C(=O)N[C@@H](CC)C(=O)N(C)[C@H](C)C(=O)N(CC)[C@@H](C(C)C)C(=O)N[C@@H](C(C)C)C(=O)N(C)[C@@H](CC(C)C)C(=O)N[C@@H](C)C(=O)N[C@H](C)C(=O)N(C)[C@@H](CC(C)C)C(=O)N(C)[C@@H](CC(C)C)C(=O)N(C)[C@@H](C(C)C)C(=O)N1C` [Alisporivir, alisporivir, reference compound], in “in vitro [1]”, the CC50 at 72 h came out at 9.7 ± 2.2 µM. Moreover, the IC50 against CypA came to 0.07 ± 0.003 µM; against CypB, 0.04 ± 0.012 µM; at CypD it was 0.03 ± 0.005 µM. Moreover, the EC50 with HCoV-229E (Human coronavirus 229E) is 2.6 ± 0.6 µM; with HCV genotype 1b replicon (setting [7]), 0.01 ± 0.0007 µM; in the series with HCV genotype 1b replicon (Hepatitis C virus, Huh-7, read-out: EC50 HCV (WT) subgenomic replicon) it was 0.04 ± 0.0005 µM. Further, the CC50 in “in vitro [2]” worked out at 32.3 ± 22 µM.
Regarding `Nc1ccc(CNC(=O)NCC(=O)N2CCCC2)cc1` [Compound 23], the IC50 (on CypA; on CypB (setting [8]); at CypD (setting [9]); in series [3]) was over 500 µM in each case.
For `COc1ccccc1C1CCCN1C(=O)CNC(=O)NCc1ccc(N)cc1` (stereo not drawn) [Compound 24], the IC50 against CypA came out at 2.8 ± 0.6 µM; on CypB (setting [8]) it was 1.2 ± 0.1 µM; on CypD (setting [9]), 11.4 ± 3 µM.
The corresponding values for `Nc1ccc(CNC(=O)NCC(=O)N2CCCC2c2ccccc2Cl)cc1` (stereo not drawn) [Compound 25] are 3.4 ± 0.7 µM, 3.7 ± 1.4 µM and 6.2 ± 2.3 µM.
`Nc1ccc(CNC(=O)NCC(=O)N2CCCC2c2ccccc2Br)cc1` (stereo not drawn) [Compound 26]: the EC50 came out at 66.3 ± 24 µM in the series with HCoV-229E, 6 ± 0.7 µM in the series with HCV genotype 1b replicon (setting [10]) and 3.6 ± 0.8 µM in the series on HIV-IIIb. Moreover, the CC50 in the series on MRC5 cells is over 100 µM; with MT4 cells it was over 53 µM; with Huh7 cells, over 100 µM.
Consider `CSc1ccccc1C1CCCN1C(=O)CNC(=O)NCc1ccc(N)cc1` (stereo not drawn) [Compound 27], for which the IC50 on CypA was 0.4 ± 0.1 µM; at CypD (setting [9]), 0.6 ± 0.1 µM. Moreover, the EC50 with HCoV-229E worked out at 34.6 ± 18.3 µM; in the series with HCV genotype 1b replicon (setting [10]), 2.7 ± 2.5 µM; with HCV genotype 1b replicon (setting [11]) it was 5.6 ± 0.7 µM; in the series on HIV-IIIb, 6.8 ± 2.3 µM. Besides, the CC50 was over 100 µM in the series on MRC5 cells, over 53 µM with MT4 cells and over 100 µM in the series with Huh7 cells.
Take `Nc1ccc(CNC(=O)NCC(=O)N2CCCC2c2cccc3ccccc23)cc1` (stereo not drawn) [Compound 28]: the IC50 at CypA was determined as 1.5 ± 0.5 µM; at CypB (setting [8]) it was 1.8 ± 0.9 µM; on CypD (setting [9]) it was 1.4 ± 0.2 µM.
For `CSc1ccccc1C1CCCN1C(=O)C(NC(=O)NCc1ccc(N)cc1)c1ccccc1` (stereo not drawn) [Compound 31], the “inhibition of calcineurin phosphatase activity” value with calcineurin was “no inhibition was observed”. For the same compound, the IC50 against CypA came to 0.1 ± 0.07 µM; at CypB (setting [8]), 0.08 ± 0.04 µM; at CypD (setting [9]) it was 0.2 ± 0.08 µM. In addition, the concentration for a half-maximal effect (EC50) was 44.7 ± 2.2 µM in the series on HCoV-229E, over 20 µM in series [4], 0.4 ± 0.3 µM with HCV genotype 1b replicon (setting [10]) and 0.3 ± 0.16 µM in the series on HCV genotype 1b replicon (setting [11]). Moreover, the mPTP opening result in the series on mPTP is given as “inhibits mPTP opening”. In addition, the “EC50 fold higher than the EC50 of alisporivir” value in the series on HCV genotype 1b replicon (HCV genotype 1b replicon, Huh7 cells) was about 40. The CC50 in the series on MRC5 cells and in the series with Huh7 cells was over 100 µM in each case.
On to `CCOC(=O)CNC(=O)NC1CCc2ccc(N)cc21` (stereo not drawn) [Compound 32], for which the IC50 on CypA turned out to be 7.4 ± 6.8 µM; on CypB (setting [8]), 8.7 ± 1.5 µM; at CypD it was 12.8 ± 2.5 µM. Also, the EC50 stood at 71.5 ± 4.3 µM with HCoV-229E (Human coronavirus 229E) and 8 ± 1.3 µM in the series on HCV genotype 1b replicon (setting [7]). For the same compound, the CC50 at 72 h in series [5] is over 100 µM. This compound gave a CC50 in series [6] of over 100 µM.
Consider `COC(=O)CS(=O)(=O)c1ccccc1` [Fragment 1], for which, on CypD, the “% CypD inhibition (%I) at 1 mM” value is on record as 40% and the “LE (ligand efficiency)” value is listed as under 0.29.
As to `O=S1(=O)CC=CC1` [Fragment 2], the “% CypD inhibition (%I) at 1 mM” value at CypD is listed as 2%.
As to `Nc1ccc(C(=O)O)cc1` [Fragment 3], at CypD, the “% CypD inhibition (%I) at 1 mM” value was 32% and the “LE (ligand efficiency)” value is under 0.42.
As for `ON=Cc1ccccc1` [Fragment 8], at CypD, the “% CypD inhibition (%I) at 1 mM” value is 32% and the “LE (ligand efficiency)” value is under 0.46.
The corresponding values for `Nc1ccc(S(=O)(=O)NC(=O)c2ccccc2)cc1` [Fragment 9] are 39% and under 0.24.
`O=CN1CCCC1` [Fragment 13]: the IC50 against CypA, on CypB (setting [8]) and at CypD (setting [9]) was over 5000 µM throughout.
Regarding `O=C(NC(=O)c1c(F)cccc1Cl)NC1c2ccccc2-c2ccccc21` [TMN-355, reference compound], the IC50 at CypB (setting [8]) and on CypD (setting [9]) was over 100 µM each time. In the series with HCV genotype 1b replicon (setting [10]), the EC50 is over 50 µM. In addition, the CC50 was 1.04 ± 0.46 µM with MRC5 cells and 4.48 ± 2.1 µM in the series on Huh7 cells.
